These results are taken from ChEMBL document CHEMBL1158575, “Glutarimide alkaloids and a terpenoid benzoquinone from Cordia globifera” (J Nat Prod, 2010).

The source made the active and inactive calls. The calls are words filed in the database; no cut-off is given here.

Broadly, the IC50 is the concentration that gives 50% inhibition. Lower therefore signals greater potency.

In experiment [1] the test system is RAW264.7. Put plainly: Inhibition of superoxide anion radical formation in mouse RAW264.7 cells by xanthine/xanthine oxidase assay. In kind it is functional, cell-based.
Experiment [2] has as its system A549. Put plainly: Cytotoxicity against human A549 cells MTT assay. The class given is functional, cell-based. (In general: Tetrazolium assays rely on reduction of a dye to a coloured formazan, in cell work by metabolically active cells.)
In experiment [3] the test system is HepG2. The experiment can be described thus: Cytotoxicity against human HepG2 cells MTT assay. The class given is functional, cell-based.
The subject of experiment [4] is HuCC-A1. The experiment can be described thus: (§1) Cytotoxicity against human HuCCa1 cells MTT assay. The class given is functional, cell-based.
Experiment [5] has as its system MOLT-3. The experiment can be described thus: Cytotoxicity against human MOLT3 cells XTT assay. In kind it is functional, cell-based.
Experiment [6] relates to HL-60. Put plainly: Suppression of TPA-induced superoxide anion generation in differentiated human HL60 cells at 100 uM. The class given is functional.
The nature of experiment [7]: as §1. In kind it is functional, cell-based. The following applies: HuCC-A1.

With `CC(=O)N[C@H]1CCC(=O)N(CC(=O)c2ccccc2)C1=O` [CORDIARIMIDE A], the IC50 in experiment [1] was determined as 54.1 µM; in experiment [5], 145 µM. In addition, the result in experiment [2], in experiment [3] and in experiment [4] was inactive.
With `CC(=O)N[C@H]1CCC(=O)N(C[C@H](O)c2ccccc2)C1=O` [CORDIARIMIDE B], the IC50 in experiment [1] is 21.7 µM; in experiment [5] it was 44.5 µM. The result in experiment [2], in experiment [3] and in experiment [4] was inactive. This compound had an Activity in experiment [6] of 54%.
For the compound `C[C@@]12CC3=C(C[C@H]1[C@]1(C)C[C@@H]1C2)C(=O)C=CC3=O` [GLOBIFERANE], the IC50 was 149 µM in experiment [2], 149 µM in experiment [3], 66 µM in experiment [7] and 3.7 µM in experiment [5].
